Molecules are shown by their SMILES. A value given as a limit tells only on which side of the number the result lay.

Data on 27 compounds can be found in US10800792B2, “Inhibitors of Bruton's tyrosine kinase and method of their use” (JANSSEN PHARMACEUTICA NV, priority 2015, dated 2020).

The target in this assay is unphosphorylated-BTK kinase domain (UP-BTK), GST-tagged human BTK (389-659aa) (Homo sapiens (Human), UniProt Q06187). The experiment in a line: BTK kinase Lanthascreen binding assay. The conditions noted are these: Lanthascreen tracer competition, 60 minutes incubation, pIC50 = negative log of the IC50 in molar; for IC50: read-out: BTK_I_binding pIC50 (converted). A digest of the protocol: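 Values are pIC50, i.e. negative log of IC50 in molar, derived from concentration–response fitting. Each compound competes with a fluorescently labelled tracer for the unphosphorylated kinase domain.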
(In general: Time-resolved FRET reads energy transfer from a long-lived donor to a nearby acceptor.)

Chain of unphosphorylated-BTK kinase domain (UP-BTK), GST-tagged human BTK (389-659aa) (Q06187 389-659): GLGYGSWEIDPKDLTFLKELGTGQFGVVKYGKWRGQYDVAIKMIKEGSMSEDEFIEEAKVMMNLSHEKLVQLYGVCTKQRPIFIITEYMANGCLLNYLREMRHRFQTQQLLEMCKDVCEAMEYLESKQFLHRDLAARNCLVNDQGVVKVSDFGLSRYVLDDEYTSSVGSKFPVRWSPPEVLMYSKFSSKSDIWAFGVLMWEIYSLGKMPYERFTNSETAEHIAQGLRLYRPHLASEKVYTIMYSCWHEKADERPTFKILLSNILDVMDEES

For the compound `O=C(N[C@@H]1CCCNC1)c1sc2nccc3c2c1NC(=O)N3c1ccnc(C2CCCC2)c1` [Example 720, (R)-5-(2-Cyclopentylpyridin-4-yl)-4-oxo-N-(piperidin-3-yl)-4,5-dihydro-3H-1-thia-3,5,8-triazaacenaphthylene-2-carboxamide], the “BTK_I_binding pIC50” value came out at 6.2.

In the case of `CC(C)Cc1cccc(N2C(=O)Nc3c(C(=O)N[C@@H]4CCCNC4)sc4nccc2c34)c1` [Example 721, (R)-5-(3-Isobutylphenyl)-4-oxo-N-(piperidin-3-yl)-4,5-dihydro-3H-1-thia-3,5,8-triazaacenaphthylene-2-carboxamide], the “BTK_I_binding pIC50” value was found to be 6.2.

`O=C(N[C@@H]1CCCNC1)c1sc2nccc3c2c1NC(=O)N3c1cc(-c2ccccc2)ncn1` [Example 723, (R)-4-Oxo-5-(6-phenylpyrimidin-4-yl)-N-(piperidin-3-yl)-4,5-dihydro-3H-1-thia-3,5,8-triazaacenaphthylene-2-carboxamide]: the IC50 was 794 nM.

In the case of `Cc1ccc(-c2ccccc2)cc1N1C(=O)Nc2c(C(=O)N[C@@H]3CCCNC3)sc3nccc1c23` [Example 725, (R)-5-(4-Methyl-[1,1′-biphenyl]-3-yl)-4-oxo-N-(piperidin-3-yl)-4,5-dihydro-3H-1-thia-3,5,8-triazaacenaphthylene-2-carboxamide], the “BTK_I_binding pIC50” value is listed as 6.1.

Regarding `CC(C)c1cc(N2C(=O)Nc3c(C(=O)N[C@@H]4CCCNC4)sc4nccc2c34)ccn1` [Example 727, (R)-5-(2-Isopropylpyridin-4-yl)-4-oxo-N-(piperidin-3-yl)-4,5-dihydro-3H-1-thia-3,5,8-triazaacenaphthylene-2-carboxamide], the “BTK_I_binding pIC50” value is below 6.

Take `Cc1cnc(-c2ccccc2)cc1N1C(=O)Nc2c(C(=O)N[C@@H]3CCCNC3)sc3nccc1c23` [Example 729, (R)-5-(5-Methyl-2-phenylpyridin-4-yl)-4-oxo-N-(piperidin-3-yl)-4,5-dihydro-3H-1-thia-3,5,8-triazaacenaphthylene-2-carboxamide]: the “BTK_I_binding pIC50” value is below 6.

For `Cc1cc(OCCOC(C)C)ccc1N1C(=O)Nc2c(C(=O)N[C@@H]3CCCNC3)sc3nccc1c23` [Example 730, (R)-5-(4-(2-Isopropoxyethoxy)-2-methylphenyl)-4-oxo-N-(piperidin-3-yl)-4,5-dihydro-3H-1-thia-3,5,8-triazaacenaphthylene-2-carboxamide], the IC50 was above 1000 nM.

Turning to `O=C(N[C@@H]1CCCNC1)c1sc2nccc3c2c1NC(=O)N3c1ccnc(C2CCCCC2)c1` [Example 731, (R)-5-(2-Cyclohexylpyridin-4-yl)-4-oxo-N-(piperidin-3-yl)-4,5-dihydro-3H-1-thia-3,5,8-triazaacenaphthylene-2-carboxamide], the “BTK_I_binding pIC50” value is reported as below 6.

As to `C=CC(=O)N1CCC[C@@H](NC(=O)c2sc3nccc4c3c2NC(=O)N4c2ccc(OC(C)C)nc2C)C1` [Example 732, (R)—N-(1-Acryloylpiperidin-3-yl)-5-(6-isopropoxy-2-methylpyridin-3-yl)-4-oxo-4,5-dihydro-3H-1-thia-3,5,8-triazaacenaphthylene-2-carboxamide], the “BTK_I_binding pIC50” value is recorded as below 6.

Consider `Cc1c(N2C(=O)Nc3c(C(=O)N[C@@H]4CCCNC4)sc4nccc2c34)ccnc1-c1ccccc1` [Example 733, (R)-5-(3-Methyl-2-phenylpyridin-4-yl)-4-oxo-N-(piperidin-3-yl)-4,5-dihydro-3H-1-thia-3,5,8-triazaacenaphthylene-2-carboxamide], for which the “BTK_I_binding pIC50” value is below 6.

Take `C=CC(=O)N1CCC[C@@H](NC(=O)c2sc3nccc4c3c2NC(=O)N4c2cc(C)nc(-c3ccccc3)c2)C1` [Example 734, (R)—N-(1-Acryloylpiperidin-3-yl)-5-(2-methyl-6-phenylpyridin-4-yl)-4-oxo-4,5-dihydro-3H-1-thia-3,5,8-triazaacenaphthylene-2-carboxamide]: the “BTK_I_binding pIC50” value is reported as below 6.

On to `Cc1cc(N2C(=O)Nc3c(C(=O)N[C@@H]4CCCNC4)sc4nccc2c34)cc(-c2ccccc2)n1` [Example 735, (R)-5-(2-Methyl-6-phenylpyridin-4-yl)-4-oxo-N-(piperidin-3-yl)-4,5-dihydro-3H-1-thia-3,5,8-triazaacenaphthylene-2-carboxamide], for which the IC50 was above 1000 nM.

For the compound `O=C(N[C@@H]1CCCNC1)c1sc2nccc3c2c1NC(=O)N3c1cccc(C2CCOCC2)c1` [Example 738, (R)-4-Oxo-N-(piperidin-3-yl)-5-(3-(tetrahydro-2H-pyran-4-yl)phenyl)-4,5-dihydro-3H-1-thia-3,5,8-triazaacenaphthylene-2-carboxamide], the “BTK_I_binding pIC50” value was below 6.

Regarding `CC(C)(C)OC(=O)N1CCC[C@@H](NC(=O)c2sc3nccc4c3c2NC(=O)N4c2cccc(C3CCOCC3)c2)C1` [Example 739, (R)-tert-Butyl 3-(4-oxo-5-(3-(tetrahydro-2H-pyran-4-yl)phenyl)-4,5-dihydro-3H-1-thia-3,5,8-triazaacenaphthylene-2-carboxamido)piperidine-1-carboxylate], the “BTK_I_binding pIC50” value was below 6.

For the compound `O=C(N[C@@H]1CCCNC1)c1sc2nccc3c2c1NC(=O)N3c1cnnc(-c2ccccc2)c1` [Example 740, (R)-4-Oxo-5-(6-phenylpyridazin-4-yl)-N-(piperidin-3-yl)-4,5-dihydro-3H-1-thia-3,5,8-triazaacenaphthylene-2-carboxamide], the “BTK_I_binding pIC50” value is below 6.

Take `O=C(N[C@@H]1CCNC1)c1sc2nccc3c2c1NC(=O)N3c1ccc(Oc2ccccc2)nc1` [Example 741, (R)-4-Oxo-5-(6-phenoxypyridin-3-yl)-N-(pyrrolidin-3-yl)-4,5-dihydro-3H-1-thia-3,5,8-triazaacenaphthylene-2-carboxamide]: the “BTK_I_binding pIC50” value is recorded as 5.9.

Turning to `Cc1nc(Oc2ccccc2)ccc1N1C(=O)Nc2c(C(=O)N[C@@H]3CCCN(C(=O)OC(C)(C)C)C3)sc3nccc1c23` [Example 743, (R)-tert-Butyl 3-(5-(2-methyl-6-phenoxypyridin-3-yl)-4-oxo-4,5-dihydro-3H-1-thia-3,5,8-triazaacenaphthylene-2-carboxamido)piperidine-1-carboxylate], the IC50 was 1580 nM.

For `O=C(N[C@@H]1CCCNC1)c1sc2nccc3c2c1NC(=O)N3c1ccc(OC2CCC2)nc1` [Example 744, (R)-5-(6-Cyclobutoxypyridin-3-yl)-4-oxo-N-(piperidin-3-yl)-4,5-dihydro-3H-1-thia-3,5,8-triazaacenaphthylene-2-carboxamide], the “BTK_I_binding pIC50” value was 5.7.

Take `C=CC(=O)N1CC[C@@H](NC(=O)c2sc3nccc4c3c2NC(=O)N4c2cnc(Oc3ccccc3)nc2)C1` [Example 748, (R)—N-(1-Acryloylpyrrolidin-3-yl)-4-oxo-5-(2-phenoxypyrimidin-5-yl)-4,5-dihydro-3H-1-thia-3,5,8-triazaacenaphthylene-2-carboxamide]: the “BTK_I_binding pIC50” value is recorded as 6.8.

Consider `C=CC(=O)N1CC[C@@H](NC(=O)c2sc3nccc4c3c2NC(=O)N4c2ncc(Oc3ccccc3)cn2)C1` [Example 749, (R)—N-(1-Acryloylpyrrolidin-3-yl)-4-oxo-5-(5-phenoxypyrimidin-2-yl)-4,5-dihydro-3H-1-thia-3,5,8-triazaacenaphthylene-2-carboxamide], for which the “BTK_I_binding pIC50” value is given as 7.3.

With `C=CC(=O)N1CCC[C@@H](NC(=O)c2sc3nccc4c3c2NC(=O)N4c2ccc(CC(C)C)cc2)C1` [Example 750, (R)—N-(1-Acryloylpiperidin-3-yl)-5-(4-isobutylphenyl)-4-oxo-4,5-dihydro-3H-1-thia-3,5,8-triazaacenaphthylene-2-carboxamide], the “BTK_I_binding pIC50” value is 6.6.

Take `C=CC(=O)N1CCC[C@@H](NC(=O)c2sc3nccc4c3c2NC(=O)N4c2cc(-c3ccccc3)cnn2)C1` [Example 751, (R)—N-(1-Acryloylpiperidin-3-yl)-4-oxo-5-(5-phenylpyridazin-3-yl)-4,5-dihydro-3H-1-thia-3,5,8-triazaacenaphthylene-2-carboxamide]: the “BTK_I_binding pIC50” value is 6.7.

Turning to `CC(C)Cc1ccc(N2C(=O)Nc3c(C(=O)N[C@@H]4CCCNC4)sc4nccc2c34)cc1` [Example 754, (R)-5-(4-Isobutylphenyl)-4-oxo-N-(piperidin-3-yl)-4,5-dihydro-3H-1-thia-3,5,8-triazaacenaphthylene-2-carboxamide], the “BTK_I_binding pIC50” value is recorded as below 6.

In the case of `O=C(N[C@@H]1CCCNC1)c1sc2nccc3c2c1NC(=O)N3c1cc(-c2ccccc2)cnn1` [Example 755, (R)-4-Oxo-5-(5-phenylpyridazin-3-yl)-N-(piperidin-3-yl)-4,5-dihydro-3H-1-thia-3,5,8-triazaacenaphthylene-2-carboxamide], the “BTK_I_binding pIC50” value is listed as below 6.

On to `C=CC(=O)N1CCC[C@@H](NC(=O)c2sc3nccc4c3c2NC(=O)N4c2ccc(CC(C)C)nc2C)C1` [Example 764, (R)—N-(1-Acryloylpiperidin-3-yl)-5-(6-isobutyl-2-methylpyridin-3-yl)-4-oxo-4,5-dihydro-3H-1-thia-3,5,8-triazaacenaphthylene-2-carboxamide], for which the “BTK_I_binding pIC50” value came out at 6.3.

For the compound `C=CC(=O)N1CCC[C@@H](NC(=O)c2sc3nccc4c3c2NC(=O)N4c2ccc(OC3CCOCC3)nc2C)C1` [Example 770, (R)—N-(1-Acryloylpiperidin-3-yl)-5-(2-methyl-6-((tetrahydro-2H-pyran-4-yl)oxy)pyridin-3-yl)-4-oxo-4,5-dihydro-3H-1-thia-3,5,8-triazaacenaphthylene-2-carboxamide], the “BTK_I_binding pIC50” value is listed as below 6.

Regarding `C=CC(=O)N1CCC[C@@H](NC(=O)c2sc3nccc4c3c2NC(=O)N4c2ccc(Oc3cccnc3C)cc2)C1` [Example 771, (R)—N-(1-Acryloylpiperidin-3-yl)-5-(4-((2-methylpyridin-3-yl)oxy)phenyl)-4-oxo-4,5-dihydro-3H-1-thia-3,5,8-triazaacenaphthylene-2-carboxamide], the “BTK_I_binding pIC50” value was found to be 7.4.
